Laboratory results as given in publication PMC7993378, “Inhibition of bacterial and human zinc-metalloproteases by bisphosphonate- and catechol-containing compounds” (Journal of Enzyme Inhibition and Medicinal Chemistry, 2021).
Like-named read-outs stand apart in the source and are kept apart here.

Columns and labels:
[1] = biological target: APMA-activated recombinant MMP-9 (rMMP-9(A)) (Homo sapiens, UniProt P14780); test: rMMP-9(A) inhibition in Tris-HCl buffer with varied preincubation time, followed continuously for 3 h; format: biochemical; details: 100 µM, 0.1 M Tris-HCl pH 7.5, N = 4
Chain of APMA-activated recombinant MMP-9 (rMMP-9(A)) (P14780 107-444 limits assumed): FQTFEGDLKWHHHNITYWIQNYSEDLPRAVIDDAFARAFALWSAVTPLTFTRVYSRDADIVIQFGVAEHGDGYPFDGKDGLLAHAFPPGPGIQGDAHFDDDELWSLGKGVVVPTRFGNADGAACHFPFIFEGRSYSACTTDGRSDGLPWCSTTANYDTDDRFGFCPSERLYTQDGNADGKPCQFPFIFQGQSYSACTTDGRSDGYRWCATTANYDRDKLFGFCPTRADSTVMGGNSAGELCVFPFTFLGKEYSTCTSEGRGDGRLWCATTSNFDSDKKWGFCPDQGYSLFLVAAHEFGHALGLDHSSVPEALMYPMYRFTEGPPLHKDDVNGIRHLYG
Source text: Except for ML33, all catechol derivatives have previously been tested for binding to MMP-2, MMP-8 and MMP-9[60]. […] The Ki values for MMP-9 in the present study were higher than the IC50 values in the previous study, the exception was MT336 for which we obtained a lower value. It is not easy to point out a single factor in the experiments contributing to deviations between the studies. Both studies used a pH of 7.5 but the buffer compositions were slightly different. […] Tauro et al.[60] used a commercial active MMP-9 produced in E-coli that only contained the catalytic domain and the fibronectin-like (FnII) module. […] A factor that may contribute to differences is that after preincubation of MMP-9 with catechol derivatives and adding of the substrate for starting the reaction, we followed the reaction continuously for 30 min, while Tauro et al.[60] used an endpoint assay allowing the reaction to proceed for 2 to 4 h before the fluorescence was measured. We did some tests to determine if some of these differences could affect the binding results. In the test experiments, we used rMMP-9(A) which differs from the MMP-9(T) by a slightly different N-terminal and a largely truncated C-terminal HPX domain[57]. One hundred µM of BF466 was tested where the 0.1 M Hepes buffer pH 7.5 was exchanged to a 0.1 M Tris-HCl buffer pH 7.5. The rMMP-9(A) was preincubated with BF466 for 0, 15 and 30 min at 37 °C and the reaction was started by the addition of the substrate McaPLGL(Dpa)AR-NH2 (4 µM in the assay) following the reaction continuously for 3 h. The controls without BF466 were treated identically. […] The reaction was allowed to proceed for 4 h, and the reaction was stopped by addition of EDTA (end concentration 10 mM) and the relative fluorescence intensity determined.
The expression and purification of recombinant human full-length proMMP-9 (rpMMP-9) from Sf9 insect cells were performed as described previously. […] The amount of active MMP-9 was determined by active site titration using galardin also described previously.

[2] = biological target: T1, trypsin-activated MMP-9 from THP-1 cells (MMP-9(T)) (Homo sapiens, UniProt P14780); test: MMP-9(T) inhibition, continuous initial rate assay with McaPLGL(Dpa)AR-NH2 after 15 min preincubation; format: biochemical; details: for inhibition at 100 µM: read-out: inhibition (reduction of activity) of MMP-9(T); for Ki: substrate McaPLGL(Dpa)AR-NH2 4 µM, 4–6 experiments, read-out: Ki ± sd MMP-9(T)
T1 construct: endogenous in cells; host or cells: THP-1 cells stimulated with PMA
T1 sequence (P14780 107-707 limits assumed): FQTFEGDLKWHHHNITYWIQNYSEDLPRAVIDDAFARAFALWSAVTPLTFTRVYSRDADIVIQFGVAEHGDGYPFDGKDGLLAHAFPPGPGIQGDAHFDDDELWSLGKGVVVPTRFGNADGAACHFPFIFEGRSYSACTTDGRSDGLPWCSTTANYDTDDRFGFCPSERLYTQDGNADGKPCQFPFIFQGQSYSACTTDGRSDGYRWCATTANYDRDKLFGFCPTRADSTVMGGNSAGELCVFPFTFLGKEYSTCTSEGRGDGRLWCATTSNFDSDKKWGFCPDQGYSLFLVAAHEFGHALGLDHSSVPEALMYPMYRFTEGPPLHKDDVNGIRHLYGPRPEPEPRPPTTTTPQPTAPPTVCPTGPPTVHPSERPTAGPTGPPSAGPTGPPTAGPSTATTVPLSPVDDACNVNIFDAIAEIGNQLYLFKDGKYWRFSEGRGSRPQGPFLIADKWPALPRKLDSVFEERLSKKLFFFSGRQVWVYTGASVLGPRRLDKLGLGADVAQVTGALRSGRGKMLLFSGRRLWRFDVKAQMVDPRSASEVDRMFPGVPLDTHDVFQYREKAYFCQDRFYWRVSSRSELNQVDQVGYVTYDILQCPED
Experimental: (§1) The inhibitorial power of 100 μM of the eight catechol containing compounds was tested against the two human metalloproteases MMP-9(T) and MMP-14 and the three bacterial metalloproteases ALN, PLN and TLN (Figure 1). In order to detect putative slow and slow-tight binding, the catechol derivatives were first incubated along with the enzyme for 15 min at 37 °C. In controls without inhibitor present, enzymes and buffer were preincubated under identical conditions. Thereafter, the enzyme reaction was started by adding the relevant […] substrate and the rate was followed continuously for 30 min. […] The activity was reduced with more than 50%, by MT336 for the two MMPs, by BF482 for MMP-9(T) and by ML33 for ALN (Figure 1). In all other inhibitory studies with catechol containing compounds, the activity was reduced between 0 and 45%.
(§2) To assure that this is correct, the inhibitors BF471 and BF489 were tested against varying McaRPPGFSAFK(Dnp)-OH using TLN as described in the Experimental section. […] It should be noted that the reaction was started by adding the enzyme to the substrate-inhibitor mixtures. In the case of slow binding, the full potential of these inhibitors would not be realised by this inhibitory assay. When the activity was reduced by more than […], experiments were performed with varying concentrations of the catechol derivatives. IC50 values were obtained from dose response plots, and Ki values were determined from the IC50 values based on substrate competitive inhibition. By the use of Ki values, we can compare the binding strength of the compounds for the different enzymes and not only comparing the compounds ability to bind one enzyme. There are several possible explanations for the deviation in determined Ki value of BF471 and BF489 for TLN from the dose response plots and the double inverse plots.
The purified proMMP-9 was activated by trypsin, by mixing approximately 300 µg of proMMP-9 with trypsin (31 μg/ml) for 10 min at 37 °C in 0.1 M Hepes pH 7.5, 0.005% Brij35% and 10 mM CaCl2. The activation and processing of MMP-9 were terminated by adding a 50 times excess of SBTI (2.7 mg/ml) in relation to trypsin and after 10 min incubation at room temperature, the mixture was transferred and kept on ice during the kinetic and inhibition kinetic measurements. After activation, the activity was determined with 10 µM of McaPLGL(Dpa)AR-NH2 in 0.1 M Hepes pH 7.5, 0.005% Brij35% and 10 mM CaCl2 in a total assay volume of 100 µL, at 37 °C. Initial rates were measured at an excitation wavelength of 320 nm and an emission wavelength of 405 nm with a slit width of 10 nm using a Perkin Elmer LS 50 Luminescence spectrometer and the FL WinLab Software Package (Perkin Elmer). The amount of active MMP-9 was determined by active site titration using galardin as described previously.
The various inhibitors were dissolved in 100% DMSO giving an inhibitor concentration of 10 mM. All the inhibitory and control experiments contained a total and fixed concentration of 1.0% DMSO. […] The fixed enzyme concentration were as follows; 0.28 nM MMP-9(T), 0.05 nM MMP-9(A), 1.0 nM MMP-14, 1.4 nM ALN, 0.5 nM PLN and 0.21 nM TLN. Enzymes with and without inhibitors were pre-incubated for 15 min at 37 °C, the initial rate assays were started by adding the substrate and the reaction was followed for 30 min. Assays were performed using a Spectra Max Gemini EM micro-plate reader (Molecular Devices) or a Clario Star micro plate reader (CLARIOstar® BMG LABTECH). Assays were performed at 37 °C, using an excitation wavelength of 320 nm and an emission wavelength of 405 nm with a slit width of 10 nm. […]

thermolysin (TLN) = biological target: T2, thermolysin (TLN) (Bacillus thermoproteolyticus, UniProt P00800); test: TLN inhibition, continuous initial rate assay with McaRPPGFSAFK(Dnp)-OH after 15 min preincubation; format: biochemical; details: for inhibition at 100 µM: 100 μM compound, 15 min preincubation at 37 °C, 4 μM substrate, read-out: inhibition (reduction of activity) of TLN; for Ki: substrate McaRPPGFSAFK(Dnp)-OH 4 µM, 4–6 experiments, read-out: Ki ± sd TLN
T2 construct: purchased Calbiochem (San Diego, CA, USA)
T2 sequence (P00800 233-548): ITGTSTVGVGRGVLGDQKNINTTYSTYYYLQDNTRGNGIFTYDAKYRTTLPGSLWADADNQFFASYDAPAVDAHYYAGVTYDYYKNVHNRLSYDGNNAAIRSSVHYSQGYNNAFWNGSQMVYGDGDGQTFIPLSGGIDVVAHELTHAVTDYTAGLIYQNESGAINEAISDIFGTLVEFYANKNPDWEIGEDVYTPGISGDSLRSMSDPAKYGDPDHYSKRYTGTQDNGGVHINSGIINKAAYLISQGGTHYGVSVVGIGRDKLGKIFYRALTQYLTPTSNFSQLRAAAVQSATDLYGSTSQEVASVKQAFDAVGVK
Experimental: as §1, §2
(§3) The various inhibitors were dissolved in 100% DMSO giving an inhibitor concentration of 10 mM. All the inhibitory and control experiments contained a total and fixed concentration of 1.0% DMSO. […] The fixed enzyme concentration were as follows; 0.28 nM MMP-9(T), 0.05 nM MMP-9(A), 1.0 nM MMP-14, 1.4 nM ALN, 0.5 nM PLN and 0.21 nM TLN. Enzymes with and without inhibitors were pre-incubated for 15 min at 37 °C, the initial rate assays were started by adding the substrate and the reaction was followed for 30 min. Assays were performed using a Spectra Max Gemini EM micro-plate reader (Molecular Devices) or a Clario Star micro plate reader (CLARIOstar® BMG LABTECH). Assays were performed at 37 °C, using an excitation wavelength of 320 nm and an emission wavelength of 405 nm with a slit width of 10 nm. The IC50 values were calculated either in Sigma Plot (Enzyme kinetics 1.3 module) or in Graph Pad Prism 5 using Equations (1) or (2) depending on the concentration span of the used inhibitor: (1) vi/v0= 1/(1+ 10^(pIC50−pI)) (2) vi/v0= 1/(1+ [I]/IC50) where vi is the enzyme activity in the presence of inhibitor, v0 the activity in the absence of inhibitor, pI=−log [Inhibitor] in M and pIC50 = −log IC50 in M. All experiments were performed in at least triplicate.

[3] = biological target: T3, Human MT1-MMP/MMP-14 (catalytic domain) (Homo sapiens, UniProt P50281); test: MMP-14 inhibition, continuous initial rate assay with McaPLGL(Dpa)AR-NH2 after 15 min preincubation; format: biochemical; details: for inhibition at 100 µM: 100 μM compound, 15 min preincubation at 37 °C, 4 μM substrate, read-out: inhibition (reduction of activity) of MMP-14; for Ki: substrate McaPLGL(Dpa)AR-NH2 4 µM, 4–6 experiments, read-out: Ki ± sd MMP-14
T3 construct: Human MT1-MMP/MMP-14 (catalytic domain); purchased Calbiochem (San Diego, CA, USA)
Experimental: as §1, §2, §3

pseudolysin (PLN) = biological target: T4, pseudolysin (PLN) (Pseudomonas aeruginosa, UniProt P14756); test: PLN inhibition, continuous initial rate assay with McaRPPGFSAFK(Dnp)-OH after 15 min preincubation; format: biochemical; details: for inhibition at 100 µM: read-out: inhibition (reduction of activity) of PLN
T4 construct: purchased Calbiochem (San Diego, CA, USA)
T4 sequence (P14756 198-498): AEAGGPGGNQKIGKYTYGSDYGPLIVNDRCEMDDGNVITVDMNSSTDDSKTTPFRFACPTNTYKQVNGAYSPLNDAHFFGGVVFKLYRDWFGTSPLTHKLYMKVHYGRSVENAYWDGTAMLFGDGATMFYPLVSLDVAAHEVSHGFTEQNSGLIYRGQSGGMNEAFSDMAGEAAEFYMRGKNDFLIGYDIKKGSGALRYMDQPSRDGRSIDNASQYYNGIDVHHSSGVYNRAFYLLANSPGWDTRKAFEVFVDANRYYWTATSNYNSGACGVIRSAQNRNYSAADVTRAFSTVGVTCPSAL
Experimental: as §1, §2, §3

TLN = biological target: T5, TLN (Bacillus thermoproteolyticus, UniProt P00800); test: TLN inhibition against varying McaRPPGFSAFK(Dnp)-OH, reaction started by adding enzyme (double inverse plots); format: biochemical; details: no preincubation, read-out: Ki TLN from varying substrate
T5 construct: purchased Calbiochem (San Diego, CA, USA)
T5 sequence (P00800 233-548): as the sequence (P00800 233-548) above
Experimental: as §2

aureolysin (ALN) = biological target: T6, aureolysin (ALN) (Staphylococcus aureus, UniProt P81177); test: ALN inhibition, continuous initial rate assay with McaRPPGFSAFK(Dnp)-OH after 15 min preincubation; format: biochemical; details: for inhibition at 100 µM: read-out: inhibition (reduction of activity) of ALN, 100 μM compound, 15 min preincubation at 37 °C, 4 μM substrate
T6 construct: purchased BioCentrum Ltd (Kraków, Poland)
T6 sequence (P81177 209-509): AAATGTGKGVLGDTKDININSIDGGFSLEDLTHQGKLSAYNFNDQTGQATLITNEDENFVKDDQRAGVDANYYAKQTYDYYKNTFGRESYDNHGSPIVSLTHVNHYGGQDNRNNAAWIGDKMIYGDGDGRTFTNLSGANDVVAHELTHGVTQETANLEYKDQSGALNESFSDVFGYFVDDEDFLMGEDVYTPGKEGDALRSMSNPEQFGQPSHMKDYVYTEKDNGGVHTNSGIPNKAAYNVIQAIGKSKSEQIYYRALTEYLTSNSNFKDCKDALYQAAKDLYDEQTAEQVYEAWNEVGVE
Experimental: as §1, §2, §3

[4] = test system: COc1ccc2c(CC(=O)N[C@@H](CCCNC(=N)N)C(=O)N3CCC[C@H]3C(=O)N3CCC[C@H]3C(=O)NCC(=O)N[C@@H](Cc3ccccc3)C(=O)N[C@@H](CO)C(=O)N[C@@H](C)C(=O)N[C@@H](Cc3ccccc3)C(=O)N[C@@H](CCCCNc3ccc([N+](=O)[O-])cc3[N+](=O)[O-])C(=O)O)cc(=O)oc2c1; test: purified protein, by the assay type; details: other: 1% DMSO; regarded as uncertain, highest substrate concentration 10 µM; pH 7.5
Experimental: For TLN, the Km value was also determined with a DMSO concentration of 2%.
Km values were determined for McaPLGL(Dpa)AR-NH2 with APMA-activated recombinant MMP-9 (rMMP-9(A)), trypsin-activated MMP-9 from THP-1 cells (MMP-9(T)) and MMP-14, and for Mca[sequence](Dnp)-OH with ALN, PLN and TLN. Substrate concentrations used were 1–10 µM in a total volume of 100 µL of 0.1 M Hepes pH 7.5 containing 10 mM CaCl2, 0.005% Brij-35 and 1.0% DMSO. […] Initial rate experiments were performed as described above for the determination of enzyme activity of MMP-9 during activation and the same excitation and emission wavelengths were used for both substrates.

[5] = 100 μM compound, 15 min preincubation at 37 °C, 4 μM substrate
[6] = catechol compounds, Ki from IC50, substrate competitive

Row | Compound | inhibition at 100 µM [2, 5] | Ki [2, 6] | inhibition at 100 µM [3] | Ki (pseudolysin (PLN)) | inhibition at 100 µM (aureolysin (ALN)) | further results
1 | O=S(=O)(NCc1cccc(O)c1O)c1ccc(-c2ccccc2)cc1 [BF466] |  |  |  |  |  | vi/v0 rMMP-9(A) ([1]; preincubation 0 min at 37 °C): 0.74 ± 0.04; vi/v0 rMMP-9(A) ([1]; preincubation 15 min at 37 °C): 0.68 ± 0.02; vi/v0 rMMP-9(A) ([1]; preincubation 30 min at 37 °C): 0.73 ± 0.05
2 | O=S(=O)(Nc1ccc(O)c(O)c1)c1ccc(Br)cc1 [BF489] | > 50% | 12.6 ± 0.6 µM | > 50% | 16 ± 3 µM | > 50% | inhibition at 100 µM (thermolysin (TLN)): > 50%; Ki (thermolysin (TLN); [6]): 14 ± 5 µM; Ki [3, 6]: 8.3 ± 0.6 µM; inhibition at 100 µM (pseudolysin (PLN)): > 50%; Ki (TLN): 73 ± 11 µM
3 | O=S(=O)(NCc1ccc(O)c(O)c1)c1ccc(Br)cc1 [BF486] |  |  |  |  |  | inhibition (reduction of activity) of MMP-9(T) [2, 5]: did not affect
4 | ALN (Staphylococcus aureus) |  |  |  |  |  | Km [4]: 76 ± 7 µM
5 | O=[N+]([O-])c1ccc(S(=O)(=O)NC(P(=O)(O)O)P(=O)(O)O)cc1 [RC2] |  |  |  | 22 ± 3 µM |  | Ki (thermolysin (TLN); bisphosphonates): 16.2 ± 0.4 µM
6 | O=S(=O)(NCc1cccc(O)c1O)c1ccc(Br)cc1 [BF482] | > 50% |  |  |  |  | inhibition (reduction of activity) of PLN (pseudolysin (PLN); [5]): did not affect
7 | O=S(=O)(Nc1cccc(O)c1O)c1ccc(-c2ccccc2)cc1 [ML32] | > 50% | 51 ± 17 µM | > 50% | 38 ± 8 µM | > 50% | Ki [3, 6]: 19 ± 0.8 µM; inhibition at 100 µM (pseudolysin (PLN)): > 50%
8 | O=P(O)(O)C(Nc1ccc(Cl)cc1)P(=O)(O)O [ML45] |  |  |  | 37 ± 6 µM |  | Ki ([3]; bisphosphonates): 17 ± 1 µM
9 | COc1ccc(S(=O)(=O)NC(P(=O)(O)O)P(=O)(O)O)cc1 [LS4] |  |  |  | 58 ± 4 µM |  | 
10 | COc1ccc(S(=O)(=O)Nc2cccc(O)c2O)cc1 [ML33] |  |  |  |  | > 50% | 
11 | O=C(NCc1ccc(-c2ccccc2)cc1)c1cccc(O)c1O [MT336] | > 50% | 13 ± 1 µM | > 50% |  |  | Ki [3, 6]: 12 ± 1 µM
12 | O=S(=O)(Nc1ccc(O)c(O)c1)c1ccc(-c2ccccc2)cc1 [BF471] | > 50% | 13 ± 2 µM | > 50% | 9 ± 3 µM | > 50% | inhibition at 100 µM (thermolysin (TLN)): > 50%; Ki (thermolysin (TLN); [6]): 13 ± 2 µM; inhibition at 100 µM (pseudolysin (PLN)): > 50%; Ki (TLN): 57 ± 6 µM; Ki (aureolysin (ALN)): 49 ± 5 µM
13 | O=P(O)(O)C(Nc1ccc(-c2ccccc2)cc1)P(=O)(O)O [MT363] |  |  |  | 12 ± 4 µM |  | Ki ([2]; bisphosphonates): 6.6 ± 0.4 µM; Ki (thermolysin (TLN); bisphosphonates): 7 ± 1 µM; Ki ([3]; bisphosphonates): 7.2 ± 0.6 µM
